Here are results for eight compounds from article PMC5062570 (Nature Communications, 2016).

The nature of data set [1]: pKa determination by multiplexed capillary electrophoresis. As to conditions: aqueous buffers. Type of data set: physicochemical. As to the method: All pKa values were determined at Analiza, Inc. by multiplexed capillary electrophoresis (mCE) using 96-capillary array electrophoresis instrument to measure the effective mobility (migration time of the compound in relation to neutral marker, DMSO) with ultraviolet detection. The pKa values were obtained from the ionization curves by plotting the compound effective mobility (24 points across pH range 1.7–11.2) versus pH. All pKa results were determined using aqueous buffers with method average absolute error 0.12.

Data set [2] concerns retinal pigment epithelium (RPE). In words: Exploratory toxicology, ocular toxicity by retinal histology in rats. Type of data set: in vivo. As to conditions: for Female ocular toxicity incidence (positive or negative animals / total evaluated) / Female ocular toxicity outcome / Male ocular toxicity incidence (positive or negative animals / total evaluated) / Male ocular toxicity outcome: rat; for Ocular toxicity: 29-day studies with high daily doses. The procedure: (§1) Wistar Han rats (obtained from Charles River, 125–300 g, 6–9 weeks old at study start, see Supplementary Table 7 for number of males and females) received daily oral dosing of test compounds or vehicle at the indicated concentrations for 7–29 days as indicated. The doses were prepared in a solution of 0.5% methylcellulose and 0.2% polysorbate 80, or 0.5% methylcellulose and hydroxypropyl methylcellulose acetate succinate (high fine grade) and delivered in a volume of 10 ml kg^−1 per day. Blood samples for bioanalytical analysis were collected in K2EDTA tubes via jugular vessel. Plasma was isolated after centrifugation and stored at −20 °C prior to analysis. Animals were given an additional dose the day after the end of the study (days 8, 15 or 30 for 7, 14 and 29 day studies, respectively) then killed by gas anaesthesia (isoflurane) followed by exsanguination ∼3 h after this final dose.

Data set [3] in a line: Plasma exposure (average unbound plasma concentration) in rats. As to conditions: Wistar Han, oral, rat, 29 days, average unbound plasma concentration, read-out: Avg Cp,u parent. The class given is in vivo, rat. As to the method:
as §1
Plasma samples were analysed after protein precipitation by treating 20 μl of sample matrix with 200 μl of acetonitrile containing internal standard. All samples were centrifuged at 3,000 r.p.m. for 5 min. Then 100 μl of supernatant was transferred to a clean plate and evaporated to dryness under N2. Samples were reconstituted in 200 μl of 80:20 (v:v) acetonitrile:water. Samples were analysed on Waters Acquity UPLC connected to AB Sciex API5500 QTrap MS/MS.
Plasma protein binding was determined in the Rapid Equilibrium Device (RED, Thermo Scientific). Frozen plasma was warmed to 37 °C and adjusted to pH 7.4. The plasma was spiked with compound to a final concentration of 2 μM. Aliquots of spiked plasma were added to the donor (red) side, followed by addition of buffer to the receiver (white) side. The RED device was covered with a gas-permeable membrane and agitated within a humidified CO2 incubator (5% CO2, 75% relative humidity). Plasma (15 μl) and buffer (45 μl) were sampled from each insert and were matrix-matched with appropriate blank matrix (plasma with 45 μl buffer and buffer with 15 μl of plasma). Samples were protein-precipitated with acetonitrile containing internal standard, and the resulting supernatant was analysed by LC-MS/MS.

In data set [4] the test system is CatD. The note with it: read-out: IC50 against purified CatD in vitro; cited from earlier work.
The target of data set [5] is T1, CatD (Homo sapiens, UniProt P07339). The data set can be described thus: CatD cellular assay (competition of PF-7802 photolabelling in live ARPE-19 cells). Further details: host or cells: ARPE-19. The class given is cell-based. The note with it: for CatD potency increase in live cells: CatD enzyme IC50 versus CatD cellular IC50; for IC50: live ARPE-19 cells, PF-7802 photoprobe 100 nM, 30 min. The procedure: ARPE-19 cells were plated at a density of 1.2 × 10^6 cells per well in six-well dishes 12–24 h before probe labelling. Culture media was removed completely and replaced with 1 ml of the appropriate serum-free media (no supplements) per well. Cells were then pretreated with test compounds at the indicated concentrations for 30 min (0.5% DMSO, 37 °C, 5% CO2). […] Ultraviolet irradiation was performed without culture plate lids for efficient irradiation, and samples were slowly rotated to prevent evaporation. After ultraviolet irradiation, cells were washed twice with Dulbecco's phosphate-buffered saline (DPBS), scraped into DPBS, centrifuged and stored as pellets at −80 °C.
Cells were lysed with sonication on ice in 70 μl DPBS and protein concentrations were determined using a BCA assay (Pierce). Total protein concentrations were then normalized to 1 mg ml^−1 in 50 μl total volume before addition of 5.5 μl click chemistry mix (1 : 3 : 1 : 0.5 volume of 50 mM CuSO4 (Sigma) in H2O : 1.7 mM TBTA (Sigma) in 4:1 t-BuOH:DMSO : 50 mM TCEP (Hampton Research) in dPBS : 10 mM TAMRA-azide (Lumiprobe) in DMSO - mixed immediately before use. Reagent solutions can be premade and stored at 4 °C except for TCEP, which should be made immediately before use). […] All fluorescence gels are presented in greyscale.
Target sequence in this assay (P07339 169-412 limits assumed): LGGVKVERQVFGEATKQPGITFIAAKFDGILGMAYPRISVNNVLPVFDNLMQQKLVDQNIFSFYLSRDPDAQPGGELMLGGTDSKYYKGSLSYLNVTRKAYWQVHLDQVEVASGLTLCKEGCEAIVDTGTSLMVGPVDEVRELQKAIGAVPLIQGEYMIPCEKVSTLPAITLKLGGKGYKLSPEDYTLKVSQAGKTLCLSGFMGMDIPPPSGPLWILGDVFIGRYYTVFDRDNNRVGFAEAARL
Target sequence in this assay (P07339 65-162 limits assumed): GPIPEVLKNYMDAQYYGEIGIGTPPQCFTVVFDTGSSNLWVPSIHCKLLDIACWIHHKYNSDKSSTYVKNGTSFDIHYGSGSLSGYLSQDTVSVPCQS

Data set [6] deals with T2, BACE1 (Homo sapiens, UniProt P56817). In words: BACE1 biochemical cellular assay (sAPPβ ELISA in H4 cells overexpressing APP695). Type of data set: cell-based. Set-up: endogenous in cells; host or cells: H4 human neuroglioma cells overexpressing human APP695. The note with it: for BACE1 potency increase in live cells: BACE1 enzyme IC50 versus BACE1 cellular IC50; for IC50: sAPPβ ELISA, H4 neuroglioma cells with human wild-type APP. The procedure:
Cellular inhibition of BACE1 was determined by measuring sAPPβ, the primary cleavage product of BACE-1, in H4 human neuroglioma cells overexpressing the wild-type human APP695. […] The colorimetric reaction was read by an EnVision plate reader (PerkinElmer).
Target sequence in this assay (P56817 46-501): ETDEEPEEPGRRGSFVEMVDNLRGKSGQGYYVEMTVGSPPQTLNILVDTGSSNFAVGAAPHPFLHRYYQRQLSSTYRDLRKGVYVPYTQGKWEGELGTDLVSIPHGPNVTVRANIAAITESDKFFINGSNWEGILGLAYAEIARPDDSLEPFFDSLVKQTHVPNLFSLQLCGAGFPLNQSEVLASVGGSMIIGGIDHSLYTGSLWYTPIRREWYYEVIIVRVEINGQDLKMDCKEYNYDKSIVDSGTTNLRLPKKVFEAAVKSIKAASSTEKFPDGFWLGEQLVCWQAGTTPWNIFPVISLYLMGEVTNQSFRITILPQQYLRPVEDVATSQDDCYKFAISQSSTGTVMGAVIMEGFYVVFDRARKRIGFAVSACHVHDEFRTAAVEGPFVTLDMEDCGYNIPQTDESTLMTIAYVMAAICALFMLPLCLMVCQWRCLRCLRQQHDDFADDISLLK

Data set [7] has as its target T1, CatD. The data set can be described thus: CatD purified enzyme fluorescence polarization assay. The class given is biochemical. Set-up: final maturation into a non-covalently associated heavy chain and light chain; purchased Sigma C8696; host or cells: human liver. The note with it: for IC50: purified human enzyme, fluorescence polarization, substrate-based. As to the method:
(§2) Purified enzyme inhibition of BACE1, BACE2, CatD and CatE was determined using fluorescence polarization (FP) assays. Briefly, purified enzymes were treated with test compounds (1% DMSO, 37 °C) in the presence of synthetic peptide substrates (150 nM) in 30 μl total volume of NaOAc buffer (100 mM, pH 4.5, 0.0001% Tween-20) in a 384-well plate. After incubation, reactions were stopped and substrate captured by the addition of 1.5 μM streptavidin, and FP measured with an EnVision plate reader (PerkinElmer, excitation 485 nm, emission 530 nm). […] BACE2 activity was assessed with 0.5 nM recombinant BACE2 (R&D Systems 4097-AS) and the same synthetic substrate used for BACE1, with a 1 h incubation time. […] CatE activity was assessed with 1.0 nM recombinant CatE (Creative BioMart CTSE-255H) and the same synthetic substrate used for CatD, with a 1.5 h incubation time.
Target sequence in this assay (P07339 65-162 limits assumed): as the sequence (P07339 65-162 limits assumed) above
Target sequence in this assay (P07339 169-412 limits assumed): as the sequence (P07339 169-412 limits assumed) above

Data set [8] concerns the target T2, BACE1. In words: BACE1 purified enzyme fluorescence polarization assay. Set-up: His (C); made in house; host or cells: CHO-K1. Type of data set: biochemical. The procedure:
as §2
Target sequence in this assay (P56817 46-457): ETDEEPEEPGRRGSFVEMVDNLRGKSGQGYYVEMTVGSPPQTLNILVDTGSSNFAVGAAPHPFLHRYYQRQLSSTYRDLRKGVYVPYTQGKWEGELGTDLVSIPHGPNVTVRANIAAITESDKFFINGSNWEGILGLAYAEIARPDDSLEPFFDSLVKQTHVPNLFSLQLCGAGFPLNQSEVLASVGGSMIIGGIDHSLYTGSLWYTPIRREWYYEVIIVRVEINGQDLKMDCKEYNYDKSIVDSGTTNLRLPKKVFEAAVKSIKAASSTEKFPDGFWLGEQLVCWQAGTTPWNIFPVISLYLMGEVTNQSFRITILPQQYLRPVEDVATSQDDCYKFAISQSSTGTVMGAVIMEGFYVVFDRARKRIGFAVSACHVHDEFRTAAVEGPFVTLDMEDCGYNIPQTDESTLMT

Data set [9] deals with CatD in ARPE-19 cells (Homo sapiens, UniProt P07339). In words: Live cell lysosome neutralization and PF-7802 labelling of CatD. As to conditions: ammonium chloride 10 mM, 2 h or bafilomycin A1 400 nM, 4 h before labelling.
CatD in ARPE-19 cells, sequence (P07339 169-412 limits assumed): as the sequence (P07339 169-412 limits assumed) above
CatD in ARPE-19 cells, sequence (P07339 65-162 limits assumed): as the sequence (P07339 65-162 limits assumed) above
Method: Immunoblots were scanned using a LiCor Odyssey. The integrated optical density of each in-gel fluorescence band was measured using ImageJ, and normalized to the CatD heavy chain protein level, also determined in ImageJ. For imaging experiments, cells were plated on coverslips and neutralized as described above. LysoSensor DND-189 (1 μM, Thermo Scientific) was then added for 30 min, followed by a 1 h washout in fresh culture media containing the neutralization reagents. Nuclei were stained with Hoescht 33342 for 5 min (20 μM, Thermo Fisher), and cells imaged live with a Zeiss LSM 780 Laser Scanning Confocal Microscope using a W Plan-Apochromat 63 × /1.0 M27 immersion objective. A 488 nm laser (10% laser power, detection from 490 to 552 nm) and 405 nm laser (6% laser power, detection from 410 to 468 nm) were used, respective detector gains set at 700 and 878, and 12-bit images acquired. Image processing was completed in ZEN lite 2012.
Data set [10] concerns the target T3, BACE2 (Homo sapiens, UniProt Q9Y5Z0).
T3 construct: purchased R&D Systems 4097-AS
T3 sequence (Q9Y5Z0 63-518): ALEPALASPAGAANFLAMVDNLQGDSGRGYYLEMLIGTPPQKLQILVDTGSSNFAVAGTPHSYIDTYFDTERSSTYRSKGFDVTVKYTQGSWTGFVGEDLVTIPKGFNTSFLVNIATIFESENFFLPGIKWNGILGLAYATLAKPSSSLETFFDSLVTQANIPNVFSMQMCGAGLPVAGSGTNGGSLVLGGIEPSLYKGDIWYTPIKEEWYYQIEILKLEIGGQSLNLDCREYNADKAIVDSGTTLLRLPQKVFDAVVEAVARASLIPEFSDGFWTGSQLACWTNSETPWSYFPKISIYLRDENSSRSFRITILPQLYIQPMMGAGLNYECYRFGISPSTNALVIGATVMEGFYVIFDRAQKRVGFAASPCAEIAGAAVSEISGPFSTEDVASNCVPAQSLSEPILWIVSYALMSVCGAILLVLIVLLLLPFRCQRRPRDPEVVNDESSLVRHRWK
In words: BACE2 purified enzyme fluorescence polarization assay. The class given is biochemical. As to conditions: purified human enzyme, fluorescence polarization. The procedure: as §2

The mark [11] stands for this setting: 29 days, 100 mg kg-1 once daily.
Where [12] appears, read: purified human enzyme, fluorescence polarization, peptide substrate.

Structures are written as SMILES. “Also recorded” adds a separate entry of the source. Read-outs that look alike come from different tables or passages of the source. Where only a bound is given, the exact number is not on record here.

Regarding `NC1=N[C@@]2(c3cc(NC(=O)c4ccc(F)cn4)ccc3F)COC[C@H]2CS1` [LY2886721, reference compound], the pKa in data set [1] (read-out: pKa) came out at 7.6. For the same compound, in [2] (setting [11]), the “Female ocular toxicity incidence (positive or negative animals / total evaluated)” value was 4/4, the “Female ocular toxicity outcome” value is given as “Neg (negative (neg) if there was no ocular abnormality observed)”, the “Male ocular toxicity incidence (positive or negative animals / total evaluated)” value is 4/4 and the “Male ocular toxicity outcome” value was “Neg (negative (neg) if there was no ocular abnormality observed)”. The “Retinal finding by fluorescence microscopy” value in [2] (rats, 100 mg kg-1 daily, 29 days) is “no ocular abnormality was observed”. Further, in data set [2] (rats), the “Ocular toxicity” value is “negative for ocular toxicity; also recorded: no ocular findings; also recorded: no ocular toxicity”. Besides, the concentration at 29 days in [3] (100 mg kg-1 once daily) was 3480 nM. The IC50 in [4] was > 100000 nM. For the same compound, in data set [5], the “CatD potency difference between cell-free enzyme and cellular assays” value was > 15 fold; the “CatD potency increase in live cells” value was > 15 x. For the same compound, in data set [6], the “BACE1 potency increase in live cells” value was determined as 13 x. In addition, the “Inhibition of purified CatD” value in data set [7] (purified CatD biochemical substrate assay) was “inactive”.
With `C[C@H]1SC(N)=N[C@@]2(c3ccc(F)cc3F)CO[C@@H](c3cc(CO)no3)C[C@@H]12` [PF-9159], in data set [1], the pKa worked out at 7.8. Also, in data set [5], the “CatD potency increase in live cells” value was determined as 150 x. In addition, the IC50 came to 110 nM in [5], 210 nM in data set [8] (setting [12]), 17 nM in data set [6] and 17000 nM in data set [7]. For the same compound, in data set [6], the “BACE1 potency increase in live cells” value was determined as 12 x.
Take `CO/C1=C\C(C)=C\[C@@H](C)[C@@H](O)[C@@H](C)C/C(C)=C/C=C/[C@H](OC)[C@@H]([C@@H](C)[C@@H](O)[C@H](C)[C@@]2(O)C[C@@H](O)[C@H](C)[C@@H](C(C)C)O2)OC1=O` [bafilomycin A1]: the “PF-7802 labelling of CatD after lysosome neutralization” value in data set [9] is on record as “significantly decreased labelling of CatD”.
Take `NC1=N[C@@]2(c3ccc(F)cc3F)CO[C@@H](c3nc(CO)co3)C[C@H]2[C@@H](CF)S1` [PF-7152]: the IC50 was 670 nM in data set [10]; 580 nM in [5]; 460 nM in data set [8] (setting [12]); 64 nM in [6]; 37000 nM in data set [7]. The pKa in data set [1] is on record as 6.9. Moreover, the “CatD potency increase in live cells” value in data set [5] was 64 x. In [6], the “BACE1 potency increase in live cells” value stood at 7.2 x.
As for `NC1=N[C@@]2(c3ccc(F)cc3F)CO[C@@H](c3cc(CO)no3)C[C@H]2[C@@H](CF)S1` [PF-3763], the IC50 in data set [10] was 1600 nM; in [5], 940 nM; in [8] (setting [12]) it was 380 nM; in data set [6], 80 nM; in [7] it was 16000 nM. Moreover, in data set [1], the pKa amounted to 7.0. Moreover, in data set [5], the “CatD potency increase in live cells” value was 17 x. The “BACE1 potency increase in live cells” value in data set [6] was found to be 4.8 x.
With `Cl.N` [ammonium chloride], the “PF-7802 labelling of CatD after lysosome neutralization” value in data set [9] was “significantly decreased labelling of CatD”.
Turning to `NC1=N[C@@]2(c3ccc(F)cc3F)CO[C@@H](C(=O)O)C[C@H]2[C@@H](CF)S1` [PF-2696], the half-maximal inhibitory concentration (IC50) in data set [10], in data set [5], in data set [8] (purified enzyme) and in [7] was > 20000 nM each time.
`COc1cnc(C(=O)Nc2ccc(F)c([C@]3(C)CS(=O)(=O)N(C)C(N)=N3)c2)cn1` [SG1, reference compound] registered an IC50 in [10] of 17 nM. Further, in [1] (read-out: pKa), the pKa amounted to 6.9. In [2] (29 days, 60 mg kg-1 once daily), the “Female ocular toxicity incidence (positive or negative animals / total evaluated)” value is reported as 4/4, the “Female ocular toxicity outcome” value is given as “Neg (negative (neg) if there was no ocular abnormality observed)”, the “Male ocular toxicity incidence (positive or negative animals / total evaluated)” value is 4/4 and the “Male ocular toxicity outcome” value is listed as “Neg (negative (neg) if there was no ocular abnormality observed)”. For the same compound, the “Ocular toxicity” value in data set [2] (rats) is “negative for ocular toxicity; also recorded: no ocular findings; also recorded: no ocular toxicity”. Further, in [3] (60 mg kg-1 once daily), the concentration at 29 days came out at 1560 nM. In data set [5], the “CatD potency increase in live cells” value was > 34 x and the IC50 is 2900 nM. In addition, the “BACE1 selectivity over CatD in cells” value in data set [5] (cellular inhibition of BACE1 cleavage of APP versus inhibition of CatD labelling by PF-7802) was > 2,000 fold. The compound also displayed an IC50 in data set [8] (setting [12]) of 6 nM. In addition, in data set [6], the “BACE1 potency increase in live cells” value is 10 x and the IC50 came to 0.59 nM. Further, the IC50 in [7] is > 100000 nM.
